In patent US11053219B2, “Substituted pyridines as TYK2 inhibitors” (FronThera U.S. Pharmaceuticals LLC, priority 2018, dated 2021):
Where two headings read alike, the source gives them in different places.

How the values were obtained:
TYK2 (JH2 domain) = TYK2 (JH2 domain) (Homo sapiens (Human), UniProt P29597); assay: TYK2 JH2 domain binding assay (DiscoverX KINOMEscan); conditions: 11-point 3-fold dilution, duplicate
Description: The assay is performed by combining three components: DNA-tagged kinase; immobilized ligand; and a test compound. The ability of the test compound to compete with the immobilized ligand is measured via quantitative PCR of the DNA tag.
The liganded beads were blocked with excess biotin and washed with blocking buffer (SeaBlock (Pierce), 1% BSA, 0.05% Tween 20, 1 mM DTT) to remove unbound ligand and to reduce non-specific binding. […] Test compounds were prepared as 111× stocks in 100% DMSO. All test compounds were shipped to DiscoverX in DMSO with concentration of 10 mM. Kds were determined using an 11-point 3-fold compound dilution series with three DMSO control points. Each compound was tested in duplicate. […] The compounds were then diluted directly into the assays such that the final concentration of DMSO was 0.9%. All reactions performed in polypropylene 384-well plate. Each was a final volume of 0.02 ml. […] The kinase concentration in the eluates was measured by qPCR.
The amount of kinase measured by qPCR (Signal; y-axis) is plotted against the corresponding compound concentration in nM in log 10 scale (x-axis). Binding constants (Kds) were calculated with a standard dose-response curve using the Hill equation:
The Hill Slope was set to −1.
Curves were fitted using anon-linear least square fit with the Levenberg-Marquardt algorithm.

[1] = system: INFα induced pSTAT5 in human PBMC; assay: INFα induced pSTAT5 in human PBMC; assay type: cell-based; conditions: read-out: p-STAT5 IC50
Description: Cells were seeded in a round bottom 96-well plate at the concentration of 200,000 cells/well. A 10-point dilution series of test compound (top dose 10 uM, 1:5 dilution) was added to the well using the liquid dispenser (Tecan D300e) and incubated for 1 hour at 37 C. Then human INFα recombinant protein (R&D Systems) was added to the well at the final concentration of 5000 units/ml and incubated for 15 minutes at 37 C. Cell lysates were prepared and analyzed by Phospho STAT3 (Tyr705) cellular kit (Cisbio) or Phospho STAT5 (Tyr693) Kit (Meso Scale Discovery) following manufacturer's protocol.
For calculation of the inhibition rate, the relative pSTAT signal of each well=pSTAT signal of each well−the average pSTAT signal of baseline. The inhibition %=(the average pSTAT signal of INFα treatment wells−the relative of pSTAT signal in each compound containing well)/the average pSTAT signal of INFα treatment wells*100%
The curve was plotted as the inhibition % (y-axis) vs. compounds concentration (x-axis) and was fitted with log(inhibitor) vs. normalized response—Variable slope by GraphPad Prism7.0.

Sequence of TYK2 (JH2 domain) (P29597 589-875): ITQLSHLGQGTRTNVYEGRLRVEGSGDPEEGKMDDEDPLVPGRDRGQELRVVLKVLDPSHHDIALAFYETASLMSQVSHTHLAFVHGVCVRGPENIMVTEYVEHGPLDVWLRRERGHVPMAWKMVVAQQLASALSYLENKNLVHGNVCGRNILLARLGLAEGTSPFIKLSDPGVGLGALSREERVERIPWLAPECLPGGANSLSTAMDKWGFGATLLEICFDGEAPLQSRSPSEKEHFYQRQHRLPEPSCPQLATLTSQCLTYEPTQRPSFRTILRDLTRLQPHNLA

COc1c(Nc2cc(N3CCN(C(C)C)C3=O)ncc2C(=O)C2CC2)cccc1-c1ncn(C)n1 [Example 35] was tested, and the Kd (TYK2 (JH2 domain)) was at most 0.001 µM.
For [2H]C([2H])([2H])NC(=O)c1nnc(/C=C/C2CC2)cc1Nc1cccc(-c2ncn(C)n2)c1OC [Example 45], the Kd (TYK2 (JH2 domain)) was at most 0.001 µM.
Work on COc1c(Nc2cc(Cl)nnc2C(=O)C(F)F)cccc1-c1ncn(C)n1 [Example 46] yielded a Kd (TYK2 (JH2 domain)) of at most 0.001 µM.
[2H]C([2H])([2H])NC(=O)c1nnc(N2CC3(COC3)C2)cc1Nc1cccc(-c2ncn(C)n2)c1OC [Example 53] gave a Kd (TYK2 (JH2 domain)) of at most 0.001 µM.
For [2H]C([2H])([2H])NC(=O)c1nnc(N2CC(F)(F)C2)cc1Nc1cccc(-c2ncn(C)n2)c1OC [Example 58], the Kd (TYK2 (JH2 domain)) was 0.005 to 0.01 µM.
For [2H]C([2H])([2H])NC(=O)c1nnc(-n2cccn2)cc1Nc1cccc(-c2ncn(C)n2)c1OC [Example 65], the Kd (TYK2 (JH2 domain)) was 0.005 to 0.01 µM.
[2H]C([2H])([2H])NC(=O)c1nnc(-n2ccc(C)n2)cc1Nc1cccc(-c2ncn(C)n2)c1OC [Example 66] gave a Kd (TYK2 (JH2 domain)) of 0.001 to 0.005 µM.
[2H]C([2H])([2H])NC(=O)c1nnc(N2CCCC2)cc1Nc1cccc(-c2ncn(C)n2)c1OC [Example 70] gave a Kd (TYK2 (JH2 domain)) of 0.001 to 0.005 µM.
[2H]C([2H])([2H])NC(=O)c1nnc(C=C(C)C)cc1Nc1cccc(-c2ncn(C)n2)c1OC [Example 73] was tested, and the Kd (TYK2 (JH2 domain)) was 0.005 to 0.01 µM.
Work on [2H]C([2H])([2H])NC(=O)c1nnc(N2CCC3(CCNCC3)C2=O)cc1Nc1cccc(-c2ncn(C)n2)c1OC [Example 75] yielded a Kd (TYK2 (JH2 domain)) of at most 0.001 µM.
Work on [2H]C([2H])([2H])NC(=O)c1nnc(N2C[C@H](O)CC2=O)cc1Nc1cccc(-c2ncn(C)n2)c1OC [Example 76] yielded a Kd (TYK2 (JH2 domain)) of 0.001 to 0.005 µM.
With [2H]C([2H])([2H])NC(=O)c1nnc(N2CCN(C3CCC3O)C2=O)cc1Nc1cccc(-c2ncn(C)n2)c1OC (centres unmarked) [Example 81] the Kd (TYK2 (JH2 domain)) was at most 0.001 µM.
[2H]C([2H])([2H])NC(=O)c1nnc(N2CCN(C(C)C(F)(F)F)C2=O)cc1Nc1cccc(-c2ncn(C)n2)c1OC (centres unmarked) [Example 83] showed a Kd (TYK2 (JH2 domain)) of at most 0.001 µM.
For [2H]C([2H])([2H])NC(=O)c1nnc(N2CCN(CC(C)(C)O)C2=O)cc1Nc1cccc(-c2ncn(C)n2)c1OC [Example 90], the Kd (TYK2 (JH2 domain)) was at most 0.001 µM.
With [2H]C([2H])([2H])NC(=O)c1nnc(N2CCN(C(CO)C(C)C)C2=O)cc1Nc1cccc(-c2ncn(C)n2)c1OC (centres unmarked) [Example 92] the Kd (TYK2 (JH2 domain)) was at most 0.001 µM.
With [2H]C([2H])([2H])NC(=O)c1nnc(N2CCN(CCN(CC)CC)C2=O)cc1Nc1cccc(-c2ncn(C)n2)c1OC [Example 93] the Kd (TYK2 (JH2 domain)) was at most 0.001 µM.
For [2H]C([2H])([2H])NC(=O)c1nnc(N2CCN(C(C)COC)C2=O)cc1Nc1cccc(-c2ncn(C)n2)c1OC (centres unmarked) [Example 97], the Kd (TYK2 (JH2 domain)) was at most 0.001 µM.
[2H]C([2H])([2H])NC(=O)c1nnc(N2CCN(C3CC(C)(C)C3)C2=O)cc1Nc1cccc(-c2ncn(C)n2)c1OC [Example 101] showed a Kd (TYK2 (JH2 domain)) of at most 0.001 µM.
Compound [2H]C([2H])([2H])NC(=O)c1nnc(N2CCN(C(CC)CC)C2=O)cc1Nc1cccc(-c2ncn(C)n2)c1OC [Example 102] has a Kd (TYK2 (JH2 domain)) of at most 0.001 µM.
Compound Cn1cnc(-c2cccc3c2OCCOCCOc2nnccc2N3)n1 [Example 104] has a Kd (TYK2 (JH2 domain)) of 0.005 to 0.01 µM.
COc1c(Nc2cc(Nc3cc(C)ccn3)ncc2C(=O)C2CC2)cccc1-c1ncn(C)n1 [Example 107] gave an IC50 ([1]; human PBMC, INFα 5000 units/ml) of under 0.1 µM.
Work on COc1c(Nc2cc(Nc3cccnn3)ncc2C(=O)C2CC2)cccc1-c1ncn(C)n1 [Example 109] yielded an IC50 ([1]; human PBMC, INFα 5000 units/ml) of under 0.1 µM.
COc1c(Nc2cc(Nc3ccc(N4CCOCC4)cn3)ncc2C(=O)C2CC2)cccc1-c1ncn(C)n1 [Example 110] showed an IC50 ([1]; human PBMC, INFα 5000 units/ml) of under 0.1 µM.
For COc1c(Nc2cc(Nc3cc(C)nc(C)n3)ncc2C(=O)C2CC2)cccc1-c1ncn(C)n1 [Example 111], the IC50 ([1]; human PBMC, INFα 5000 units/ml) was under 0.1 µM.
With COc1c(Nc2cc(Nc3cccc(C)n3)ncc2C(=O)C2CC2)cccc1-c1ncn(C)n1 [Example 112] the IC50 ([1]; human PBMC, INFα 5000 units/ml) was under 0.1 µM.
In the case of COc1c(Nc2cc(Nc3ccc(C)nn3)ncc2C(=O)C2CC2)cccc1-c1ncn(C)n1 [Example 113], the IC50 ([1]; human PBMC, INFα 5000 units/ml) is reported as under 0.1 µM.
For CCC(=O)c1cnc(NC(=O)N2CCC2)cc1Nc1cccc(-c2ncn(C)n2)c1OC [Example 114], the IC50 ([1]; human PBMC, INFα 5000 units/ml) was under 0.1 µM.
Compound CCC(=O)c1cnc(N2CCN(C(C)C)C2=O)cc1Nc1cccc(-c2ncn(C)n2)c1OC [Example 115] has an IC50 ([1]; human PBMC, INFα 5000 units/ml) of under 0.1 µM.
Compound CCC(=O)c1cnc(NC(=O)C2CC2)cc1Nc1cccc(-c2ncn(C)n2)c1OC [Example 116] has an IC50 ([1]; human PBMC, INFα 5000 units/ml) of under 0.1 µM.
In the case of COc1c(Nc2cc(N[S@+]([O-])C(C)(C)C)ncc2C(=O)C2CC2)cccc1-c1ncn(C)n1 [Example 118], the Kd (TYK2 (JH2 domain)) is reported as over 0.01 µM.
Work on COc1c(Nc2cc(Nc3ncccc3F)ncc2C(=O)C2CC2)cccc1-c1ncn(C)n1 [Example 119] yielded an IC50 ([1]; human PBMC, INFα 5000 units/ml) of under 0.1 µM.
For COc1c(Nc2cc(Nc3ccc(C(C)(C)O)c(F)n3)ncc2C(=O)C2CC2)cccc1-c1ncn(C)n1 [Example 120], the IC50 ([1]; human PBMC, INFα 5000 units/ml) was under 0.1 µM.
For COc1c(Nc2cc(NC(=O)NC(C)C)ncc2C(=O)C2CC2)cccc1-c1ncn(C)n1 [Example 121], the IC50 ([1]; human PBMC, INFα 5000 units/ml) was under 0.1 µM.
COc1c(Nc2cc(Nc3ccc(C(C)(C)O)cn3)ncc2C(=O)C2CC2)cccc1-c1ncn(C)n1 [Example 122] was tested, and the IC50 ([1]; human PBMC, INFα 5000 units/ml) was under 0.1 µM.
COc1c(Nc2cc(N[S@@+]([O-])C(C)(C)C)ncc2C(=O)C2CC2)cccc1-c1ncn(C)n1 [Example 123] gave a Kd (TYK2 (JH2 domain)) of over 0.01 µM.
COc1c(Nc2cc(Nc3ccc(OC4CCOC4)cn3)ncc2C(=O)C2CC2)cccc1-c1ncn(C)n1 (centres unmarked) [Example 124] was tested, and the IC50 ([1]; human PBMC, INFα 5000 units/ml) was under 0.1 µM.
CS(=O)(=O)c1cccnc1Nc1cc(Nc2cccnn2)ncc1C(=O)C1CC1 [Example 125] gave an IC50 ([1]; human PBMC, INFα 5000 units/ml) of under 0.1 µM.
In the case of [2H]C([2H])([2H])Oc1c(Nc2cc(NC(=O)C3CC3)ncc2C(=O)C2CC2)cccc1-c1ncn(C([2H])([2H])[2H])n1 [Example 127], the IC50 ([1]; Homo sapiens, PBMC) is reported as under 0.1 µM.
Compound COc1c(Nc2cc(N[S+]([O-])C(C)(C)C)ncc2C(=O)C2CC2)cccc1-c1ncn(C)n1 (centres unmarked) [Example 128] has an IC50 ([1]; Homo sapiens, PBMC) of 1 to 10 µM.
CNC(=O)c1nnc(NC(=O)N2CC(C)C2)cc1Nc1cccc(-c2ncn(C)n2)c1OC [Example 129] gave an IC50 ([1]; human PBMC, INFα 5000 units/ml) of under 0.1 µM.
COc1c(Nc2cc(NC(=O)C3CC3F)ncc2C(=O)C2CC2)cccc1-c1ncn(C)n1 (centres unmarked) [Example 130] gave an IC50 ([1]; human PBMC, INFα 5000 units/ml) of under 0.1 µM.
Work on COc1c(-c2ncn(C)n2)ccnc1Nc1cc(Nc2ccc(C(C)(C)O)c(F)n2)ncc1C(=O)C1CC1 [Example 131] yielded an IC50 ([1]; human PBMC, INFα 5000 units/ml) of under 0.1 µM.
COc1c(Nc2cc(Nc3cc(C)n(C)n3)ncc2C(=O)C2CC2)cccc1-c1ncn(C)n1 [Example 132] was tested, and the IC50 ([1]; human PBMC, INFα 5000 units/ml) was under 0.1 µM.
COc1c(Nc2cc(NC(=O)N3CC(C)(C)C3)ncc2C(=O)C2CC2)cccc1-c1ncn(C)n1 [Example 133] gave an IC50 ([1]; human PBMC, INFα 5000 units/ml) of under 0.1 µM.
In the case of COc1c(Nc2cc(Nc3nccc(=O)[nH]3)ncc2C(=O)C2CC2)cccc1-c1ncn(C)n1 [Example 135], the IC50 ([1]; human PBMC, INFα 5000 units/ml) is reported as 1 to 10 µM.
Work on COc1c(Nc2cc(Nc3cc(C#N)ccn3)ncc2C(=O)C2CC2)cccc1-c1ncn(C)n1 [Example 136] yielded an IC50 ([1]; human PBMC, INFα 5000 units/ml) of under 0.1 µM.
CS(=O)(=O)c1cccnc1Nc1cc(Nc2ccccn2)ncc1C(=O)C1CC1 [Example 137] gave an IC50 ([1]; human PBMC, INFα 5000 units/ml) of under 0.1 µM.
Work on COc1c(Nc2cc(Nc3ccn(C)n3)ncc2C(=O)C2CC2)cccc1-c1ncn(C)n1 [Example 138] yielded an IC50 ([1]; human PBMC, INFα 5000 units/ml) of under 0.1 µM.
For COc1c(Nc2cc(Nc3ccc(C#N)cn3)ncc2C(=O)C2CC2)cccc1-c1ncn(C)n1 [Example 139], the IC50 ([1]; human PBMC, INFα 5000 units/ml) was under 0.1 µM.
COc1c(Nc2cc(Nc3cccc(C#N)n3)ncc2C(=O)C2CC2)cccc1-c1ncn(C)n1 [Example 140] was tested, and the IC50 ([1]; human PBMC, INFα 5000 units/ml) was under 0.1 µM.
COc1c(-c2ncn(C)n2)ccnc1Nc1cc(Nc2ccccn2)ncc1C(=O)C1CC1 [Example 141] showed an IC50 ([1]; human PBMC, INFα 5000 units/ml) of under 0.1 µM.
Compound [2H]C([2H])([2H])NC(=O)c1nnc(NC(=O)N2CC(C)(F)C2)cc1Nc1cccc(-c2ncn(C)n2)c1OC [Example 142] has an IC50 ([1]; human PBMC, INFα 5000 units/ml) of under 0.1 µM.
COc1c(Nc2cc(Nc3ccnc(C#N)n3)ncc2C(=O)C2CC2)cccc1-c1ncn(C)n1 [Example 143] gave an IC50 ([1]; human PBMC, INFα 5000 units/ml) of under 0.1 µM.
